The target in test [1] is Heat shock protein HSP 90-beta/Hsp90 co-chaperone Cdc37 (Homo sapiens) (UniProt P08238+Q16543). Nature of the test: Inhibition of His-tagged HSP90(unknown origin)/GST-tagged CDC37 (unknown origin) protein-protein interaction at 100 uM preincubated with HSP90 for 1 hrs followed by CDC37 addition and measured after 1 hrs by HTRF assay relative to control. The format is protein-complex assay. Background: In TR-FRET formats the signal depends on donor and acceptor labels being close together.

Test [2] in a line: Selectivity ratio of IC50 for antiproliferative activity against CDC37 knockout human HCT-116 cells to IC50 for antiproliferative activity against human HCT-116 cells. The test is classed as functional.
In test [3] the test system is HCT-116. The experiment in a line: Antiproliferative activity against human HCT-116 cells assessed as inhibition of cell proliferation incubated for 72 hrs by MTT assay. The note with it: HCT-116, 72 h. The test is classed as functional, cell-based.
Test [4] deals with HCT-116. The experiment in a line: Antiproliferative activity against CDC37 knockout human HCT-116 cells assessed as inhibition of cell proliferation incubated for 72 hrs by MTT assay. The test is classed as functional, cell-based. The following applies: HCT-116, 72 h. Background: Formazan colour is commonly taken as a measure of viable cells.

As to `Cc1ccc(S(=O)(=O)/C=C/c2cn(-c3ccccc3)nc2-c2cccnc2)cc1`, the inhibition (as a rule, the share of the control response that was lost under treatment) in test [1] was 85.8%. Moreover, in test [2], the “Ratio IC50” value is more than 10. Moreover, the IC50 (commonly the concentration needed to halve the response being measured) with HCT-116 [3] was 4.77 µM; in the test with HCT-116 [4], more than 50 µM.
In turn, `NC(=O)C1CCCCN1C(=O)/C=C/c1cn(-c2ccccc2)nc1-c1cccc([N+](=O)[O-])c1` (stereo unspecified) came in with an inhibition in test [1] of less than 20%. For the same compound, the 50% inhibitory concentration (IC50) with HCT-116 [3] and in the test with HCT-116 [4] was more than 50 µM throughout.
The compound `COc1cncc(-c2nn(-c3ccccc3)cc2/C=C/C(=O)N2CCCCC2C(N)=O)c1` (stereo unspecified) showed an inhibition in test [1] of 70.9%. In addition, the “Ratio IC50” value in test [2] is given as more than 10. Besides, the IC50 in the test on HCT-116 [3] is 8.98 µM; with HCT-116 [4] it was more than 100 µM.
For `Cc1cccc(-c2nn(-c3ccccc3)cc2/C=C/C(=O)N2CCCCC2C(N)=O)c1` (stereo unspecified), in that order: 52.9%, 4.3, 8.12 µM and 35 µM.
On to `CN(C)C(=O)/C=C/c1cn(-c2ccccc2)nc1-c1cccnc1`, for which the inhibition in test [1] is 58.9%. In test [2], the “Ratio IC50” value turned out to be 3.7. Also, the half-inhibitory concentration (IC50) in the test with HCT-116 [3] was found to be 12.4 µM; in the test on HCT-116 [4], 46 µM.
In test [1], `NC(=O)C1CCCCN1C(=O)/C=C/c1cn(-c2ccccc2)nc1-c1cccc(C(=O)O)c1` (stereo unspecified) yielded an inhibition of less than 20%. Besides, the IC50 in the test with HCT-116 [3] and in the test with HCT-116 [4] was more than 50 µM in each case.
Turning to `Cc1ccccc1S(=O)(=O)/C=C/c1cn(-c2ccccc2)nc1-c1cccnc1`, in test [1], the inhibition was 87.6%. In test [2], the “Ratio IC50” value is more than 25. Further, the results for the half-inhibitory concentration (IC50) in the test on HCT-116 [3] and with HCT-116 [4] were 2.55 µM and more than 50 µM, respectively.
For `CCCN(CCC)C(=O)/C=C/c1cn(-c2ccccc2)nc1-c1cccnc1`, in that order: 63.6%, 5.1, 9.04 µM and 46.3 µM.
The like results for `CCN(CC)C(=O)/C=C/c1cn(-c2ccccc2)nc1-c1cccnc1` were, in that order, 60.2%, 4.8, 10.3 µM and 49.9 µM.
In test [1], `NC(=O)C1CCCCN1C(=O)/C=C/c1cn(-c2ccccc2)nc1-c1cncc(C(F)(F)F)c1` (stereo unspecified) displayed an inhibition of less than 20%. Also, the IC50 with HCT-116 [3] and in the test with HCT-116 [4] was more than 50 µM in each case.
Regarding `NC(=O)C1CCCCN1C(=O)/C=C/c1cn(-c2ccccc2)nc1-c1cccc(Cl)c1` (stereo unspecified), in test [1], the inhibition was determined as 48.3%. In addition, in test [2], the “Ratio IC50” value is 3.1. The IC50 in the test with HCT-116 [3] came out at 9.17 µM; in the test with HCT-116 [4] it was 28.2 µM.
For `NC(=O)C1CCCCN1C(=O)/C=C/c1cn(-c2ccccc2)nc1-c1ccccc1` (stereo unspecified), in that order: 46.4%, 2.8, 10 µM and 28.8 µM.
Consider `NC(=O)C1CCCCN1C(=O)/C=C/c1cn(-c2ccccc2)nc1-c1ccc2ccccc2c1` (stereo unspecified), for which the inhibition in test [1] was less than 20%. Also, the IC50 in the test with HCT-116 [3] and in the test with HCT-116 [4] was more than 50 µM throughout.
Regarding `NC(=O)C1CCCCN1C(=O)/C=C/c1cn(-c2ccccc2)nc1-c1ccncc1` (stereo unspecified), the inhibition in test [1] was 70.4%. For the same compound, the “Ratio IC50” value in test [2] was more than 10. The IC50 in the test with HCT-116 [3] was 8.11 µM; in the test with HCT-116 [4], more than 100 µM.
For the compound `N#Cc1cccc(-c2nn(-c3ccccc3)cc2/C=C/C(=O)N2CCCCC2C(N)=O)c1` (stereo unspecified), in test [1], the inhibition was less than 20%. In addition, the IC50 in the test on HCT-116 [3] and with HCT-116 [4] was more than 50 µM throughout.
Compound `Cc1cc(-c2nn(-c3ccccc3)cc2/C=C/C(=O)N2CCCCC2C(N)=O)ccc1F` (stereo unspecified) registered an inhibition in test [1] of 45.7%. Further, the “Ratio IC50” value in test [2] is less than 5. Also, the IC50 with HCT-116 [3] was 12.6 µM; with HCT-116 [4], more than 50 µM.
`NC(=O)C1CCCCN1C(=O)/C=C/c1cn(-c2ccccc2)nc1Cc1ccccc1` (stereo unspecified) showed an inhibition in test [1] of 38.9%. For the same compound, the “Ratio IC50” value in test [2] is reported as 2.3. The results for the IC50 in the test with HCT-116 [3] and in the test with HCT-116 [4] were 18.2 µM and 42.2 µM, respectively.
For `CCOC(=O)c1cccc(-c2nn(-c3ccccc3)cc2/C=C/C(=O)N2CCCCC2C(N)=O)c1` (stereo unspecified), in test [1], the inhibition was less than 20%. In addition, the concentration for half-maximal inhibition (IC50) with HCT-116 [3] and in the test with HCT-116 [4] was more than 50 µM throughout.

For the origin of these results see ChEMBL document CHEMBL6177982, “Structural Optimization of Pyrazole Compounds as Hsp90 Regulators with Enhanced Antitumor Activity” (J Med Chem, 2025).
